{"source": "PubChem BioAssay AID1259407", "about": "(Chemical Carcinogenesis Research Information System (CCRIS), 2018)", "system": "CCRIS mutagenicity, Ames/micronucleus/aberration tests", "assay": "CCRIS mutagenicity studies", "key": {"[1]": {"conditions": "Test System: AMES SALMONELLA TYPHIMURIUM, Strain/Indicator: TA100, Metabolic Activation: NONE, Method: PREINCUBATION"}}, "note": "Active and inactive are the calls of the source. No rule for the calls is given here.", "data": [{"compound": "N#CN=C(N)N", "values": [{"measurement": "mutagenic call", "setting": "Test System: AMES SALMONELLA TYPHIMURIUM, Strain/Indicator: TA98, Metabolic Activation: MAIZE SEEDLING, S-14, Method: PREINCUBATION", "value": "active; positive"}, {"measurement": "mutagenic call", "setting": "Test System: AMES SALMONELLA TYPHIMURIUM, Strain/Indicator: TA98, Metabolic Activation: MOUSE, LIVER, S-9, Method: PREINCUBATION", "value": "inactive; negative"}, {"measurement": "mutagenic call", "setting": "Test System: AMES SALMONELLA TYPHIMURIUM, Strain/Indicator: TA98, Metabolic Activation: NONE, Method: PREINCUBATION", "value": "inactive; negative"}, {"measurement": "mutagenic call", "setting": "Test System: AMES SALMONELLA TYPHIMURIUM, Strain/Indicator: TA98, Metabolic Activation: RAT LIVER S-9, PHENOBARBITAL AND BETA-NAPHTHOFLAVONE, Method: PREINCUBATION", "value": "inactive; negative"}, {"measurement": "mutagenic call", "setting": "Test System: AMES SALMONELLA TYPHIMURIUM, Strain/Indicator: TA100, Metabolic Activation: MAIZE SEEDLING, S-14, Method: PREINCUBATION", "value": "inactive; negative"}, {"measurement": "mutagenic call", "setting": "Test System: AMES SALMONELLA TYPHIMURIUM, Strain/Indicator: TA100, Metabolic Activation: MOUSE, LIVER, S-9, Method: PREINCUBATION", "value": "inactive; negative"}, {"measurement": "mutagenic call", "setting": "[1]", "value": "inactive; negative"}, {"measurement": "mutagenic call", "setting": "Test System: AMES SALMONELLA TYPHIMURIUM, Strain/Indicator: TA100, Metabolic Activation: RAT LIVER S-9, PHENOBARBITAL AND BETA-NAPHTHOFLAVONE, Method: PREINCUBATION", "value": "inactive; negative"}, {"measurement": "mutagenic call", "setting": "Test System: AMES SALMONELLA TYPHIMURIUM, Strain/Indicator: TA102, Metabolic Activation: NONE, Method: PREINCUBATION", "value": "inactive; negative"}, {"measurement": "mutagenic call", "setting": "Test System: AMES SALMONELLA TYPHIMURIUM, Strain/Indicator: TA102, Metabolic Activation: RAT LIVER S-9, PHENOBARBITAL AND BETA-NAPHTHOFLAVONE, Method: PREINCUBATION", "value": "inactive; negative"}, {"measurement": "mutagenic call", "setting": "Test System: AMES SALMONELLA TYPHIMURIUM, Strain/Indicator: TA104, Metabolic Activation: NONE, Method: PREINCUBATION", "value": "inactive; negative"}, {"measurement": "mutagenic call", "setting": "Test System: AMES SALMONELLA TYPHIMURIUM, Strain/Indicator: TA104, Metabolic Activation: RAT LIVER S-9, PHENOBARBITAL AND BETA-NAPHTHOFLAVONE, Method: PREINCUBATION", "value": "inactive; negative"}, {"measurement": "mutagenic call", "setting": "Test System: AMES SALMONELLA TYPHIMURIUM, Strain/Indicator: TA1535, Metabolic Activation: NONE, Method: PREINCUBATION", "value": "inactive; negative"}, {"measurement": "mutagenic call", "setting": "Test System: AMES SALMONELLA TYPHIMURIUM, Strain/Indicator: TA1535, Metabolic Activation: RAT LIVER S-9, PHENOBARBITAL AND BETA-NAPHTHOFLAVONE, Method: PREINCUBATION", "value": "inactive; negative"}, {"measurement": "mutagenic call", "setting": "Test System: AMES SALMONELLA TYPHIMURIUM, Strain/Indicator: TA1537, Metabolic Activation: NONE, Method: PREINCUBATION", "value": "inactive; negative"}, {"measurement": "mutagenic call", "setting": "Test System: AMES SALMONELLA TYPHIMURIUM, Strain/Indicator: TA1537, Metabolic Activation: RAT LIVER S-9, PHENOBARBITAL AND BETA-NAPHTHOFLAVONE, Method: PREINCUBATION", "value": "inactive; negative"}, {"measurement": "mutagenic call", "setting": "Test System: AMES SALMONELLA TYPHIMURIUM, Strain/Indicator: TA1538, Metabolic Activation: NONE, Method: PREINCUBATION", "value": "inactive; negative"}, {"measurement": "mutagenic call", "setting": "Test System: E.COLI, Strain/Indicator: WP2UVRA/PKM101, Metabolic Activation: NONE, Method: PREINCUBATION", "value": "inactive; negative"}, {"measurement": "mutagenic call", "setting": "Test System: E.COLI, Strain/Indicator: WP2UVRA/PKM101, Metabolic Activation: RAT LIVER S-9, PHENOBARBITAL AND BETA-NAPHTHOFLAVONE, Method: PREINCUBATION", "value": "inactive; negative"}, {"measurement": "mutagenic call", "setting": "Test System: E.COLI, Strain/Indicator: WP2UVRA, Metabolic Activation: NONE, Method: PREINCUBATION", "value": "inactive; negative"}, {"measurement": "mutagenic call", "setting": "Test System: E.COLI, Strain/Indicator: WP2UVRA, Metabolic Activation: RAT LIVER S-9, PHENOBARBITAL AND BETA-NAPHTHOFLAVONE, Method: PREINCUBATION", "value": "inactive; negative"}]}, {"compound": "COCC12OOC1(C)c1ccccc1O2", "note": "(configuration not stated)", "values": [{"measurement": "mutagenic call", "setting": "[1]", "value": "active; positive"}]}, {"compound": "Nc1ccc(I)cc1", "values": [{"measurement": "mutagenic call", "setting": "End Point: IN VITRO MICRONUCLEUS, Test System: CHL/IU CELLS, Metabolic Activation: RAT, LIVER, S-9, PHENOBARBITAL AND 5,6-BENZOFLAVONE", "value": "inactive; negative"}]}, {"compound": "CC(C)(C)c1cc(-c2ccccc2)ccc1[N+](=O)[O-]", "values": [{"measurement": "mutagenic call", "setting": "Test System: AMES SALMONELLA TYPHIMURIUM, Strain/Indicator: TA98, Metabolic Activation: NONE, Method: STANDARD PLATE", "value": "inactive; negative"}, {"measurement": "mutagenic call", "setting": "Test System: AMES SALMONELLA TYPHIMURIUM, Strain/Indicator: TA98, Metabolic Activation: S-9, Method: STANDARD PLATE", "value": "inactive; negative"}, {"measurement": "mutagenic call", "setting": "Test System: AMES SALMONELLA TYPHIMURIUM, Strain/Indicator: TA100, Metabolic Activation: NONE, Method: STANDARD PLATE", "value": "inactive; negative"}, {"measurement": "mutagenic call", "setting": "Test System: AMES SALMONELLA TYPHIMURIUM, Strain/Indicator: TA100, Metabolic Activation: S-9, Method: STANDARD PLATE", "value": "inactive; negative"}]}]}
